# How the values were obtained:
# HA-tagged PA from FluB = assay: competitive ELISA, PB1 peptide / PA of FluB; format: binding, influenza B virus
# HA-tagged PA of FluA = details: read-out: IC50 (nM) PA (FluA)
sequence,measurement,setting,value
"MDVNPYFLFLKVPAQ [PB11-15 AT6Y, L7F]",IC50,HA-tagged PA from FluB,345 nM
same,IC50,HA-tagged PA of FluA,7.51 nM

# From patent publication US20120122896A1, “2,1,3-BENZOXADIAZOL DERIVATIVES FOR THE INHIBITION OF INFLUENZA A AND B VIRUS AND RESPIRATORY SYNCYTIAL VIRUS REPLICATION” (PIKE PHARMA GMBH, priority 2009, published 2012)
